Results published in PMC8625466 (Viruses, 2021).
Where two headings read alike, the source gives them in different places.

Legend:
[1] = in vitro; conditions: hamster, Cytotoxicity (CC50)
[2] = target: FMDV 3C^pro (Foot-and-mouth disease virus, UniProt P03306); test: cell-based
[3] = tested on: FMDV; test: organism not typed; assay type: cell-based, Foot-and-mouth-disease virus serotype A (NP05)
[4] = tested on: BHK-21 cells
[5] = BHK-21, 0 h, read-out: Viral (EC50)
[6] = BHK-21, 2 h, read-out: Post-Viral (EC50)
[7] = BHK-21, read-out: Prophylaxis (EC50)
[8] = read-out: EC50 (low antiviral activities)

Chain of FMDV 3C^pro (P03306 1650-1862 limits assumed): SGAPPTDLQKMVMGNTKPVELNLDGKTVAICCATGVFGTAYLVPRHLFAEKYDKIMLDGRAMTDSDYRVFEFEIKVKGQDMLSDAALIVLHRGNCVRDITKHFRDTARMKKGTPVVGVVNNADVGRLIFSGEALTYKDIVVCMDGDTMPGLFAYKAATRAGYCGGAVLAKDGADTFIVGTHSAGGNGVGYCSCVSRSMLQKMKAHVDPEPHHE

With `COc1cc(O)c2c(=O)cc(-c3ccc(O)c(O)c3)oc2c1` [7-O-Methylluteolin] the CC50 [1] was over 100 µM, the IC50 [2] was over 200 µM and the EC50 [3, 5] was 75 to 100 µM. The EC50 [3, 6] was 75 to 100 µM, the EC50 [3, 7] was over 100 µM and the EC50 [3, 8] was 75 to 100 µM.

With `O=c1cc(-c2ccc(O)cc2)oc2cc(O)cc(O)c12` [Apigenin] the CC50 [1] was 68.7 ± 4.1 µM, the IC50 [2] was over 200 µM and the EC50 [3, 5] was 75 to 100 µM. The EC50 [3, 6] was 75 to 100 µM, the EC50 [3, 7] was over 100 µM and the EC50 [3, 8] was 75 to 100 µM.

With `O=C(O)[C@H]1O[C@@H](Oc2cc3oc(-c4ccccc4)cc(=O)c3c(O)c2O)[C@H](O)[C@@H](O)[C@@H]1O` [Baicalin] the CC50 [1] was over 100 µM.

`COc1ccc(-c2coc3cc(O[C@@H]4O[C@H](CO)[C@@H](O)[C@H](O)[C@H]4O)ccc3c2=O)cc1O` [Calycosin 7-O-glucoside] gave a CC50 [4] of over 100 µM.

`O=C/C=C/c1ccccc1` [Cinnamaldehyde] showed a CC50 [1] of over 100 µM.

With `COc1ccc(-c2cc(=O)c3c(O)cc(O[C@@H]4O[C@H](CO[C@@H]5O[C@@H](C)[C@H](O)[C@@H](O)[C@H]5O)[C@@H](O)[C@H](O)[C@H]4O)cc3o2)cc1O` [Diosmin] the CC50 [1] was over 100 µM.

`O=C(O[C@@H]1Cc2c(O)cc(O)cc2O[C@@H]1c1cc(O)c(O)c(O)c1)c1cc(O)c(O)c(O)c1` [EGCG] showed a CC50 [4] of over 100 µM.

In the case of `COc1cc(C2Oc3cc([C@H]4Oc5cc(O)cc(O)c5C(=O)[C@@H]4O)ccc3OC2CO)ccc1O` (stereo partly drawn) [Flavobin], the CC50 [1] is reported as 45.1 µM.

With `COc1ccc([C@@H]2CC(=O)c3c(O)cc(O[C@@H]4O[C@H](CO[C@@H]5O[C@@H](C)[C@H](O)[C@@H](O)[C@H]5O)[C@@H](O)[C@H](O)[C@H]4O)cc3O2)cc1O` [Hesperidin] the CC50 [4] was over 100 µM.

With `COc1ccc(-c2cc(=O)c3c(O)cc(O)c(-c4cc(-c5cc(=O)c6c(O)cc(O)cc6o5)ccc4OC)c3o2)cc1` [Isoginkgetin] the CC50 [1] was over 100 µM, the “Fold increase of the FLuc over Renilla luciferase (Rluc) ratio” value (“Fold increase of the FLuc … (Rluc) ratio” for short) [2] was 2.65 fold and the IC50 [2] was 39.03 ± 0.05 µM. For the same molecule, the EC50 [3, 5] was 2.01 ± 0.07 µM, the EC50 [3, 6] was 1.93 ± 0.21 µM and the EC50 [3, 7] was 6.76 ± 0.8 µM.

With `O=C(COc1cc(O)c2c(=O)cc(-c3ccccc3)oc2c1)c1ccc(F)cc1` [Kaempferol derivative, 7-[2-(4-Fluorophenyl)-2-oxoethoxy]-5-hydroxy-2-phenyl-4H-chromen-4-one] the CC50 [1] was over 100 µM.

`COc1ccc(-c2cc(=O)c3c(O)cc(O[C@@H]4O[C@H](CO[C@@H]5O[C@@H](C)[C@H](O)[C@@H](O)[C@H]5O)[C@@H](O)[C@H](O)[C@H]4O)cc3o2)cc1` [Linarin] showed a CC50 [4] of over 100 µM.

For `O=C(/C=C/c1ccc(O)c2c1[C@H](C(=O)O)[C@@H](c1ccc(O)c(O)c1)O2)O[C@H](Cc1ccc(O)c(O)c1)C(=O)O` [Lithospermic acid], the CC50 [1] was over 100 µM.

In the case of `O=c1cc(-c2ccc(O)c(O)c2)oc2cc(O)cc(O)c12` [Luteolin], the CC50 [1] is reported as over 100 µM, the “Fold increase of the FLuc … (Rluc) ratio” value [2] is reported as 1.86 fold and the IC50 [2] is reported as 176.7 ± 0.05 µM. For the same molecule, the EC50 [3, 5] was 9.73 ± 0.94 µM, the EC50 [3, 6] was 10 ± 0.98 µM and the EC50 [3, 7] was 25.8 ± 1.29 µM.

In the case of `O=c1cc(-c2ccccc2)oc2cc(O[C@@H]3O[C@H](CO[C@@H]4O[C@H](CO)[C@@H](O)[C@H](O)[C@H]4O)[C@@H](O)[C@H](O)[C@H]3O)c(O)c(O)c12` [Oroxin B], the CC50 [4] is reported as 85.9 ± 7.4 µM.

In the case of `C[C@@H]1O[C@@H](Oc2cc(O)c3c(=O)c(O)c(-c4ccc(O)c(O)c4)oc3c2)[C@H](O)[C@H](O)[C@H]1O` [Quercetin 7-rhamnoside], the CC50 [4] is reported as over 100 µM, the IC50 ([2]; read-out: IC50, cell-based protease assay) is reported as over 200 µM and the EC50 ([3]; read-out: Post-Viral (EC50)) is reported as 75 to 100 µM. It also gave an EC50 ([3]; read-out: Prophylaxis (EC50)) of over 100 µM and an EC50 ([3]; read-out: Viral (EC50)) of over 100 µM.

Work on `NC(=O)c1ncn([C@@H]2O[C@H](CO)[C@@H](O)[C@H]2O)n1` [Ribavirin, reference compound] yielded a CC50 [1] of over 100 µM, an EC50 [3, 5] of 41.8 ± 1.58 µM and an EC50 [3, 6] of 133 ± 2.03 µM. The EC50 [3, 7] was 283.9 ± 2.3 µM.

In the case of `CCOC(=O)/C=C/[C@H](C[C@@H]1CCNC1=O)NC(=O)[C@@H](CC(=O)[C@@H](NC(=O)c1cc(C)on1)C(C)C)Cc1ccc(F)cc1` [Rupintrivir, reference compound], the CC50 [1] is reported as over 100 µM, the “Fold increase of the FLuc … (Rluc) ratio” value [2] is reported as 4.27 fold and the IC50 [2] is reported as 13.5 ± 0.19 µM. It also gave an EC50 [3, 5] of 1.99 ± 0.01 µM, an EC50 [3, 6] of 1.69 ± 0.19 µM and an EC50 [3, 7] of 11.8 ± 1.03 µM.

Molecule `O=C(/C=C/c1ccc(O)cc1)OC[C@H]1O[C@@H](Oc2c(-c3ccc(O)cc3)oc3cc(O)cc(O)c3c2=O)[C@H](O)[C@@H](O)[C@@H]1O` [Tiliroside] has a CC50 [1] of over 100 µM.

With Epicatechin-3-gallate the CC50 [4] was 77 ± 8.85 µM.

Work on Hyperoxide yielded a CC50 [4] of over 100 µM.

Molecule Methyl Hesperidin,(S) has a CC50 [4] of over 100 µM.
